Experimental data reported in PMC10709440, “High-throughput ligand profile characterization in novel cell lines expressing seven heterologous insect olfactory receptors for the detection of volatile plant biomarkers” (Scientific Reports, 2023).
Read-outs that look alike come from different tables or passages of the source.

What was measured:
Drosophila OR10a = target: T1, Drosophila OR10a (Drosophila melanogaster, UniProt Q9VYZ1); assay: Calcium ion fluorescence (GCaMP6) assay, OR10a stable HEK293 cell line; type: cell-based
T1 construct: expressed in transfected cells
T1 sequence (Q9VYZ1 1-406): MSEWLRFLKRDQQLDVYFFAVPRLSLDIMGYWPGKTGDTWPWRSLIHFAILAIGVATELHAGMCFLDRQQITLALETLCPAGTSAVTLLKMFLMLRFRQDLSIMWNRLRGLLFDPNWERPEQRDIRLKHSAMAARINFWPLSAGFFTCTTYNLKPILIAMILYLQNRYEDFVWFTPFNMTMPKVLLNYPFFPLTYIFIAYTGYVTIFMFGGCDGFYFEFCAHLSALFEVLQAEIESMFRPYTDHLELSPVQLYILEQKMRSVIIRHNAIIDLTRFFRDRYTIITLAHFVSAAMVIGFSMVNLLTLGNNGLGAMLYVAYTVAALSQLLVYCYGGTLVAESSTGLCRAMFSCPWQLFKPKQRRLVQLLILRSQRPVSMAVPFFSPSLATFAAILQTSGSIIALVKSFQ
T1 sequence (Q9VNB5 1-486 partner): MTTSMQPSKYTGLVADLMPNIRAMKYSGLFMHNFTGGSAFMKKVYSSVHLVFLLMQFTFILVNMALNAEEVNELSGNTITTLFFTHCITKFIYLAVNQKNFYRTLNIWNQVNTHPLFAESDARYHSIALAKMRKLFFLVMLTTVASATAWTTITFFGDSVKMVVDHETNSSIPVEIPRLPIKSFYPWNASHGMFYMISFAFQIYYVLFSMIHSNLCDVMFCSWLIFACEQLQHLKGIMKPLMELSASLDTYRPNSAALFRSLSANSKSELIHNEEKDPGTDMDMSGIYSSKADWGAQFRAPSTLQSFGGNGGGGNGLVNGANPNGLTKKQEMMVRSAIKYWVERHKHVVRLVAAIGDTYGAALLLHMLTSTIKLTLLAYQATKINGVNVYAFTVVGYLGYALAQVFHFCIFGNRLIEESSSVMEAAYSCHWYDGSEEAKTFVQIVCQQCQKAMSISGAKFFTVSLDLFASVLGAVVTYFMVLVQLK
Outline: (§1)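 Responses are VUAA1-normalized ΔF: each VOC-evoked calcium signal, (FMAX−F0)/F0 over 30 s after injection, divided by the same line's mean 50 µM VUAA1 response. Cells were doxycycline-induced HEK293 with GCaMP6 and the cognate Drosophila OR, in HEPES buffer pH 7.3; ligands tested 0.01–100 μM.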

Drosophila OR47a = target: T2, Drosophila OR47a (Drosophila melanogaster, UniProt P81921); assay: Calcium ion fluorescence (GCaMP6) assay, OR47a stable HEK293 cell line; type: cell-based; details: for Average response: mean of biological replicates; for OR47a Average response (VUAA1-normalized): 50 μM VUAA1 = 1; for response intensity: of VUAA1 response
T2 construct: expressed in transfected cells
T2 sequence (P81921 1-385): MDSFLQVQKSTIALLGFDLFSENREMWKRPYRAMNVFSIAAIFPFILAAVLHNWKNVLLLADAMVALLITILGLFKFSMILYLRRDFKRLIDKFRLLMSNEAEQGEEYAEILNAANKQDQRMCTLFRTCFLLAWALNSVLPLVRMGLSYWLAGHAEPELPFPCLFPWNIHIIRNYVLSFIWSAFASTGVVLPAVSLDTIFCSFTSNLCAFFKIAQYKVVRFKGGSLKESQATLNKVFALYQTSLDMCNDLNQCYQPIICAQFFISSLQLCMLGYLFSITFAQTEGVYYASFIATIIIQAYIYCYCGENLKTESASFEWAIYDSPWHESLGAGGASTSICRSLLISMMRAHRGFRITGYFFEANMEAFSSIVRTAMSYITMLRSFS
T2 sequence (Q9VNB5 1-486 partner): T1 sequence (Q9VNB5 1-486 partner)
Outline: as §1

[1] = HEK293, read-out: OR10a response (VUAA1-normalized response), VOC concentration 1 μM
[2] = HEK293, read-out: OR10a response (VUAA1-normalized response), VOC concentration 10 μM
[3] = HEK293, read-out: OR10a response (VUAA1-normalized response), VOC concentration 100 μM
[4] = concentration 1, normalized fluorescence change, values below 0.05 threshold given as 0
[5] = concentration 10, normalized fluorescence change, values below 0.05 threshold given as 0
[6] = concentration 100, normalized fluorescence change, values below 0.05 threshold given as 0
[7] = HEK293, read-out: OR47a Average response (VUAA1-normalized)
[8] = HEK293, read-out: OR47a response (VUAA1-normalized response)
[9] = OR47a cell line, odorant cc. 1 µM
[10] = OR47a cell line, odorant cc. 10 µM
[11] = OR47a cell line, odorant cc. 100 µM
[12] = HEK293, 1 μM VOC, 50 μM VUAA1 = 1, responses not exceeding 0.05 considered 0, read-out: OR10a Average response (VUAA1-normalized)
[13] = HEK293, 10 μM VOC, 50 μM VUAA1 = 1, responses not exceeding 0.05 considered 0, read-out: OR10a Average response (VUAA1-normalized)
[14] = HEK293, 100 μM VOC, 50 μM VUAA1 = 1, responses not exceeding 0.05 considered 0, read-out: OR10a Average response (VUAA1-normalized)
[15] = ligand concentration 1 (unit not given), threshold 0.05, below shown as 0
[16] = ligand concentration 10 (unit not given), threshold 0.05, below shown as 0
[17] = ligand concentration 100 (unit not given), threshold 0.05, below shown as 0

SMILES | activation at 1 µM (Drosophila OR10a; [1]) [%] | activation at 10 µM (Drosophila OR10a; [2]) [%] | activation at 100 µM (Drosophila OR10a; [3]) [%] | activation at 1 µM (Drosophila OR47a; [7]) [%] | activation at 10 µM (Drosophila OR47a; [7]) [%] | activation at 100 µM (Drosophila OR47a; [7]) [%] | activation at 1 µM (Drosophila OR47a; [8]) [%] | activation at 10 µM (Drosophila OR47a; [8]) [%] | activation at 100 µM (Drosophila OR47a; [8]) [%] | Average response (Drosophila OR47a; [9]) | Average response (Drosophila OR47a; [10]) | Average response (Drosophila OR47a; [11]) | DF norm AVERAGE OR47a (Drosophila OR47a; [4]) | DF norm AVERAGE OR47a (Drosophila OR47a; [5]) | DF norm AVERAGE OR47a (Drosophila OR47a; [6]) | activation at 1 µM (Drosophila OR10a; [12]) [%] | activation at 10 µM (Drosophila OR10a; [13]) [%] | activation at 100 µM (Drosophila OR10a; [14]) [%] | DF norm AVERAGE OR10a (Drosophila OR10a; [15]) | DF norm AVERAGE OR10a (Drosophila OR10a; [16]) | further results
CCCCC(C)=O [2-hexanone] | 10 | 0 | 0 | 4 | 0 | 16 | 0 | 0 | 16 | 0.0368 | 0.00 | 0.16 | 0 | 0 | 0.1643 | – | – | – | – | – | activation at 1 µM (Drosophila OR10a; HEK293, read-out: OR10a Average response (VUAA1-normalized), 1 μM VOC, 50 μM VUAA1 = 1, responses not exceeding 0.05 considered 0): 10%; activation at 10 µM (Drosophila OR10a; HEK293, read-out: OR10a Average response (VUAA1-normalized), 10 μM VOC, 50 μM VUAA1 = 1, responses not exceeding 0.05 considered 0): 0%; activation at 100 µM (Drosophila OR10a; HEK293, read-out: OR10a Average response (VUAA1-normalized), 100 μM VOC, 50 μM VUAA1 = 1, responses not exceeding 0.05 considered 0): 0%; DF norm AVERAGE OR10a (Drosophila OR10a; [4]): 0.09901; DF norm AVERAGE OR10a (Drosophila OR10a; [5]): 0; DF norm AVERAGE OR10a (Drosophila OR10a; [6]): 0
C=CC(C)(O)CCC=C(C)C (stereo not drawn) [linalool] | – | – | – | – | – | – | – | – | – | 0.00 | 0.0374 | 0.00 | – | – | – | 2 | 7 | 0 | 0 | 0.06934 | OR10a response (VUAA1-normalized) at 1 μM (Drosophila OR10a; OR10a cell line, VOC concentration 1 μM): 0.00; OR10a response (VUAA1-normalized) at 10 μM (Drosophila OR10a; OR10a cell line, VOC concentration 10 μM): 0.07; OR10a response (VUAA1-normalized) at 100 μM (Drosophila OR10a; OR10a cell line, VOC concentration 100 μM): 0.00; DF norm AVERAGE OR10a (Drosophila OR10a; [17]): 0; OR47a response (VUAA1-normalized) at 1 μM (Drosophila OR47a; OR47a cell line, VOC concentration 1 μM): 0.00; OR47a response (VUAA1-normalized) at 10 μM (Drosophila OR47a; OR47a cell line, VOC concentration 10 μM): 0.00; OR47a response (VUAA1-normalized) at 100 μM (Drosophila OR47a; OR47a cell line, VOC concentration 100 μM): 0.00; DF norm AVERAGE OR47a (Drosophila OR47a; [15]): 0; DF norm AVERAGE OR47a (Drosophila OR47a; [16]): 0; DF norm AVERAGE OR47a (Drosophila OR47a; [17]): 0
Cc1ccc(C)c(C)c1 [1,2,4-trimethylbenzene] | 7 | 0 | 0 | – | – | – | 0 | 0 | 0 | 0.00 | 0.00 | 0.00 | 0 | 0 | 0 | 7 | 0 | 2.53 | – | – | –
CC/C=C\CCO [Z3-hexenol] | – | – | – | – | – | – | – | – | – | 0.0266 | 0.0571 | 0.10 | – | – | – | – | – | – | – | – | OR10a Average response (VUAA1-normalized) (Drosophila OR10a; 1 μM VOC, 50 μM VUAA1 = 1, responses not exceeding 0.05 considered 0): 0.17; OR10a Average response (VUAA1-normalized) (Drosophila OR10a; 10 μM VOC, 50 μM VUAA1 = 1, responses not exceeding 0.05 considered 0): 0.19; OR10a Average response (VUAA1-normalized) (Drosophila OR10a; 100 μM VOC, 50 μM VUAA1 = 1, responses not exceeding 0.05 considered 0): 0.10; DF norm AVERAGE OR10a (Drosophila OR10a; ligand concentration 1 (unit not given), […]): 0.1736; DF norm AVERAGE OR10a (Drosophila OR10a; ligand concentration 10 (unit not given), […]): 0.1946; DF norm AVERAGE OR10a (Drosophila OR10a; ligand concentration 100 (unit not given), […]): 0.1046; OR47a Average response (VUAA1-normalized) (Drosophila OR47a; 1 μM VOC): 0.03; OR47a Average response (VUAA1-normalized) (Drosophila OR47a; 10 μM VOC): 0.06; OR47a Average response (VUAA1-normalized) (Drosophila OR47a; 100 μM VOC): 0.10; DF norm AVERAGE OR47a (Drosophila OR47a; ligand concentration 1 (unit not given), 0.05 threshold, values below shown as 0): 0; DF norm AVERAGE OR47a (Drosophila OR47a; ligand concentration 10 (unit not given), 0.05 threshold, values below shown as 0): 0.0571; DF norm AVERAGE OR47a (Drosophila OR47a; ligand concentration 100 (unit not given), 0.05 threshold, values below shown as 0): 0.1005
CC(=O)OCCC(C)C [isopentyl acetate] | 9 | 19 | 10 | 0 | 12 | 18 | 0 | 12 | 18 | 0.00 | 0.12 | 0.18 | – | – | – | 9 | 19 | 10 | 0.08825 | 0.1921 | DF norm AVERAGE OR10a (Drosophila OR10a; [17]): 0.101; response intensity (Drosophila OR47a; OR47a cell line, 10 μM): 12%; response intensity (Drosophila OR47a; OR47a cell line, 100 μM): 18%; DF norm AVERAGE OR47a (Drosophila OR47a; [15]): 0; DF norm AVERAGE OR47a (Drosophila OR47a; [16]): 0.1209; DF norm AVERAGE OR47a (Drosophila OR47a; [17]): 0.1752
CCCCCC(C)=O [2-heptanone] | 0 | 0 | 0 | 3 | 19 | 46 | 0 | 19 | 46 | 0.03 | 0.19 | 0.46 | 0 | 0.1895 | 0.4589 | 3 | 4 | 4 | – | – | DF norm AVERAGE OR10a (Drosophila OR10a): 0
